“And” between values parts separate entries of the source, which are not always exact repeats. Identical values can stand only once. Inconclusive results and toxic doses are left out. Where a SMILES comes first, the peptide text is derived from it. The star is where a group is joined. Cbz = O=C(OCc1ccccc1)*; Bn = c1ccc(C*)cc1
Tested on: B6C3F1 mice, B16 melanoma ip, median survival T/C
Assay: NCI In Vivo Anticancer Drug Screen. Data for tumor model B16 Melanoma (intraperitoneal) in B6C3F1 mice
Conditions: endpoint: median survival time, schedule: Q01DX009 (ip), higher = longer survival
Method: The antitumor activity of compounds was measured in mice bearing transplantable tumors. Survival or tumor size were measured and the results are expressed as the measurement made in the treated group (T) divided by the measurement made in the vehicle treated control group (C). The tumor model used in this assay is B16 Melanoma (intraperitoneal) in B6C3F1 mice

[1] = dose: 12.5 mg/kg/injection, vehicle: Klucel (hydroxypropylcellulose) (HPC)
[2] = dose: 25.0 mg/kg/injection, vehicle: Klucel (hydroxypropylcellulose) (HPC)
[3] = dose: 50.0 mg/kg/injection, vehicle: Klucel (hydroxypropylcellulose) (HPC)
[4] = dose: 100.0 mg/kg/injection, vehicle: Klucel (hydroxypropylcellulose) (HPC)
[5] = dose: 200.0 mg/kg/injection, vehicle: Klucel (hydroxypropylcellulose) (HPC)
[6] = dose: 6.25 mg/kg/injection, vehicle: Klucel (hydroxypropylcellulose) (HPC)
[7] = dose: 50.0 mg/kg/injection, vehicle: saline
[8] = dose: 100.0 mg/kg/injection, vehicle: saline
[9] = dose: 200.0 mg/kg/injection, vehicle: saline
[10] = dose: 25.0 mg/kg/injection, vehicle: saline
[11] = dose: 25.0 mg/kg/injection, vehicle: saline with Tween-80
[12] = dose: 6.25 mg/kg/injection, vehicle: saline
[13] = dose: 12.5 mg/kg/injection, vehicle: saline
[14] = dose: 12.5 mg/kg/injection, vehicle: suspension in saline
[15] = dose: 50.0 mg/kg/injection, vehicle: suspension in saline
[16] = dose: 100.0 mg/kg/injection, vehicle: suspension in saline
[17] = dose: 400.0 mg/kg/injection, vehicle: Klucel (hydroxypropylcellulose) (HPC)
[18] = dose: 12.5 mg/kg/injection, vehicle: saline with Tween-80
[19] = dose: 6.25 mg/kg/injection, vehicle: saline with Tween-80
[20] = dose: 25.0 mg/kg/injection, vehicle: water
[21] = dose: 50.0 mg/kg/injection, vehicle: water
[22] = dose: 100.0 mg/kg/injection, vehicle: water

SMILES: Cc1cc(C)c(-c2cc(O)c(C)cc2O)c(C)c1
- T/C [1]: 99 % of control
- T/C [2]: 101 % of control
- T/C [3]: 103 % of control
- T/C [4]: 99 % of control
- T/C [5]: 100 % of control

SMILES: Cc1[nH]ccc(=O)c1O
- T/C (dose: 16.0 mg/kg/injection, vehicle: saline with Tween-80): 103 % of control
- T/C (dose: 32.0 mg/kg/injection, vehicle: saline with Tween-80): 103 % of control
- T/C (dose: 64.0 mg/kg/injection, vehicle: saline with Tween-80): 109 % of control
- T/C (dose: 128.0 mg/kg/injection, vehicle: saline with Tween-80): 111 % of control
- T/C (dose: 256.0 mg/kg/injection, vehicle: saline with Tween-80): 118 % of control

SMILES: CNc1nc(NC)nc(NC)n1
- T/C [1]: 91 % of control
- T/C [2]: 96 % of control
- T/C [3]: 100 % of control
- T/C [4]: 106 % of control

SMILES: CCN(CC)CC(=O)O[C@]1(CC)C(=O)OCc2c1cc1n(c2=O)Cc2cc3ccccc3nc2-1
- T/C (dose: 1.0 mg/kg/injection, vehicle: water): 108 % of control
- T/C (dose: 2.0 mg/kg/injection, vehicle: water): 121 % of control
- T/C (dose: 4.8 mg/kg/injection, vehicle: water): 152 % of control
- T/C (dose: 8.0 mg/kg/injection, vehicle: water): 166 % of control

SMILES: C=C1C(=O)O[C@@H]2[C@H]3O[C@]3(C)CCC=C(C)CC[C@@H]12
- T/C [6]: 91 % of control
- T/C [1]: 97 % of control
- T/C [2]: 98 % of control
- T/C [3]: 108 % of control

SMILES: CC(N)C(=O)NC(CC(N)=O)C(=O)O (stereo unspecified)
- T/C [7]: 103 % of control
- T/C [8]: 94 % of control
- T/C [9]: 97 % of control

SMILES: CN(N=O)C(N)=O
- T/C (dose: 12.0 mg/kg/injection, vehicle: saline): 188 % of control

SMILES: CN(C)C=O
- T/C [10]: 99 % of control
- T/C [7]: 112 % of control and 100 % of control
- T/C [8]: 88 % of control and 96 % of control
- T/C [9]: 86 % of control and 93 % of control
- T/C (dose: 400.0 mg/kg/injection, vehicle: saline): 122 % of control and 98 % of control
- T/C (dose: 800.0 mg/kg/injection, vehicle: saline): 108 % of control and 122 % of control
- T/C (dose: 1600.0 mg/kg/injection, vehicle: saline): 116 % of control

SMILES: [Cl][Pt+2][Cl].[NH-]C1CCC1.[NH2-]
- T/C (dose: 0.75 mg/kg/injection, vehicle: saline): 151 % of control
- T/C (dose: 3.0 mg/kg/injection, vehicle: saline): 205 % of control

SMILES: Nc1nc(-c2cccc([N+](=O)[O-])c2)c(Br)c(=O)[nH]1
- T/C [11]: 115 % of control
- T/C (dose: 50.0 mg/kg/injection, vehicle: saline with Tween-80): 122 % of control

SMILES: CC(C)C(NC(=O)C(CSCc1ccccc1)NC(=O)OCc1ccccc1)C(=O)O (stereo unspecified) (Cbz-Cys(Bn)-Val-OH; configuration not given here)
- T/C [4]: 93 % of control
- T/C [5]: 98 % of control

SMILES: CN=C(N)c1ccc(N=C(N)c2ccc(C(N)=Nc3ccc(C(N)=NC)cc3)cc2)cc1
- T/C (dose: 7.5 mg/kg/injection, vehicle: saline): 95 % of control
- T/C (dose: 15.0 mg/kg/injection, vehicle: saline): 89 % of control

SMILES: C1CNCOC1
- T/C [12]: 112 % of control and 95 % of control
- T/C [13]: 102 % of control and 104 % of control
- T/C [10]: 96 % of control and 101 % of control
- T/C [7]: 96 % of control and 103 % of control
- T/C [8]: 112 % of control
- T/C [9]: 105 % of control

SMILES: O=c1[nH]c(=O)c2nc(-c3cccnc3)cnc2[nH]1
- T/C [13]: 92 % of control
- T/C [10]: 98 % of control
- T/C [7]: 95 % of control
- T/C [8]: 92 % of control

SMILES: Cn1nnc2c(C(N)=O)ncn2c1=O
- T/C [14]: 113 % of control
- T/C [15]: 167 % of control
- T/C [8]: 181 % of control
- T/C [16]: 206 % of control

SMILES: CC(C)(C)OC(=O)N(C=O)C(Cc1c[nH]c2ccccc12)C(=O)O (stereo unspecified)
- T/C [4]: 94 % of control
- T/C [5]: 88 % of control
- T/C [17]: 86 % of control

SMILES: Cc1ccc(C(CCCl)OC(C)C)cc1 (stereo unspecified)
- T/C (dose: 100.0 mg/kg/injection, vehicle: saline with Tween-80): 97 % of control
- T/C (dose: 200.0 mg/kg/injection, vehicle: saline with Tween-80): 94 % of control
- T/C (dose: 400.0 mg/kg/injection, vehicle: saline with Tween-80): 94 % of control

SMILES: CN(C)c1nc(N(C)C)nc(N(C)C)n1
- T/C [18]: 88 % of control

SMILES: O=Cc1c(O)c2ccccc2[nH]c1=O
- T/C [19]: 109 % of control and 107 % of control
- T/C [18]: 108 % of control and 105 % of control
- T/C [11]: 119 % of control

SMILES: Clc1ccccc1N1CCN(CCCN2CCN(c3ccccc3Cl)CC2)CC1
- T/C (dose: 3.13 mg/kg/injection, vehicle: saline with Tween-80): 100 % of control
- T/C [19]: 95 % of control
- T/C [18]: 94 % of control
- T/C [11]: 99 % of control

SMILES: Nc1nc(F)nc2c1ncn2C1OC(COP(=O)(O)O)C(O)C1O (stereo unspecified)
- T/C [14]: 90 % of control
- T/C (dose: 25.0 mg/kg/injection, vehicle: suspension in saline): 97 % of control
- T/C [15]: 93 % of control
- T/C [16]: 105 % of control

SMILES: Nc1ccc(C(=O)O)cc1
- T/C (dose: 3.12 mg/kg/injection, vehicle: Klucel (hydroxypropylcellulose) (HPC)): 100 % of control and 104 % of control
- T/C [6]: 114 % of control and 99 % of control and 103 % of control
- T/C [1]: 114 % of control and 101 % of control
- T/C [2]: 112 % of control and 90 % of control and 107 % of control
- T/C [20]: 98 % of control
- T/C [3]: 100 % of control
- T/C [21]: 101 % of control
- T/C [4]: 117 % of control
- T/C [22]: 102 % of control
- T/C [5]: 105 % of control

SMILES: Nc1ncnc2c1ncn2C1OCC(O)C1O (stereo unspecified)
- T/C [13]: 118 % of control
- T/C [10]: 121 % of control
- T/C [16]: 124 % of control

SMILES: c1cc(-c2cc3ccc(C4=NCCN4)cc3[nH]2)ccc1C1=NCCN1
- T/C (dose: 3.12 mg/kg/injection, vehicle: saline): 111 % of control
- T/C (dose: 3.12 mg/kg/injection, vehicle: suspension in saline): 104 % of control
- T/C [12]: 108 % of control
- T/C (dose: 6.25 mg/kg/injection, vehicle: suspension in saline): 94 % of control
- T/C [13]: 100 % of control
- T/C [14]: 96 % of control
- T/C [10]: 95 % of control

SMILES: C=C(c1ccc(OC)c(OC)c1)c1nccc2cc(OC)c(OC)cc12
- T/C [3]: 103 % of control
- T/C [4]: 98 % of control
- T/C [5]: 87 % of control
- T/C [17]: 97 % of control
- T/C (dose: 800.0 mg/kg/injection, vehicle: Klucel (hydroxypropylcellulose) (HPC)): 90 % of control

SMILES: CSc1ncc2ncn(C3OC(CO)C(O)C3O)c2n1 (stereo unspecified)
- T/C [2]: 101 % of control and 105 % of control
- T/C [3]: 95 % of control and 98 % of control
- T/C [4]: 103 % of control
- T/C [5]: 106 % of control
- T/C [17]: 110 % of control and 89 % of control

SMILES: CCOC(=O)N(CCCCCCNC(c1ccccc1)S(=O)(=O)O)c1ccccc1 (stereo unspecified)
- T/C [2]: 96 % of control
- T/C [3]: 100 % of control
- T/C [4]: 100 % of control

SMILES: Nc1cc(Cl)c2[nH]cnc2n1
- T/C (dose: 6.25 mg/kg/injection, vehicle: water): 102 % of control
- T/C (dose: 12.5 mg/kg/injection, vehicle: distilled water + Tween-80): 95 % of control
- T/C (dose: 12.5 mg/kg/injection, vehicle: water): 106 % of control
- T/C (dose: 25.0 mg/kg/injection, vehicle: distilled water + Tween-80): 88 % of control
- T/C [20]: 110 % of control
- T/C (dose: 50.0 mg/kg/injection, vehicle: distilled water + Tween-80): 99 % of control
- T/C [21]: 98 % of control
- T/C (dose: 100.0 mg/kg/injection, vehicle: distilled water + Tween-80): 96 % of control
- T/C [22]: 100 % of control
- T/C (dose: 200.0 mg/kg/injection, vehicle: water): 100 % of control

Source: PubChem BioAssay AID200 (DTP/NCI, 2004)
